Source: publication PMC12806454 (Quantitative Biology, 2024)

What was measured:
[1] = rat, in vivo, iv; cited from earlier work
Mpro of HKU1 = Mpro of HKU1 (Human coronavirus HKU1, UniProt P0C6X2); assay: biochemical
Mpro of NL63 = Mpro of NL63 (Human coronavirus NL63, UniProt P0C6X5); assay: biochemical
Mpro of OC43 = Mpro of OC43 (Human coronavirus OC43, UniProt P0C6X6); assay: biochemical
Mpro of SARS-CoV-1 = Mpro of SARS-CoV-1 (Severe acute respiratory syndrome coronavirus, UniProt P0C6X7); assay: biochemical
Mpro of 229E = Mpro of 229E (Human coronavirus 229E, UniProt P0C6X1); assay: biochemical
Chain of Mpro of 229E (P0C6X1 2966-3267): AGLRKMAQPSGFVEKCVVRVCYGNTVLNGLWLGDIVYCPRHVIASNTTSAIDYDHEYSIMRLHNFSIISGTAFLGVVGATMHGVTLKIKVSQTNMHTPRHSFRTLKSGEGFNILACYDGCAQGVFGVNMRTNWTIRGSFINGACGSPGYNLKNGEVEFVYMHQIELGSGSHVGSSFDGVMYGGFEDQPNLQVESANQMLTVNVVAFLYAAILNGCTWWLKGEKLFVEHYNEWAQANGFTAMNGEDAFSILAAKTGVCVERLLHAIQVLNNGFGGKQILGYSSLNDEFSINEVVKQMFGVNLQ

Mpro of MERS = Mpro of MERS (Middle East respiratory syndrome-related coronavirus, UniProt K9N7C7); assay: biochemical
Chain of Mpro of MERS (K9N7C7 3248-3553 limits assumed): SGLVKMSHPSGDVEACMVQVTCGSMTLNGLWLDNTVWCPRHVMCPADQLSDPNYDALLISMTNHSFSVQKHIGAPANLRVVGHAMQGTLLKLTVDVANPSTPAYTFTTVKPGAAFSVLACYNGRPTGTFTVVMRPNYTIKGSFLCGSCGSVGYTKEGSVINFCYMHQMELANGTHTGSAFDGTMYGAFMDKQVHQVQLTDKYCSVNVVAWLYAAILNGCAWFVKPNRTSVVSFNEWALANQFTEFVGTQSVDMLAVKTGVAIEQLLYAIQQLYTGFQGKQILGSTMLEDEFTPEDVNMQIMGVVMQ

Chain of Mpro of HKU1 (P0C6X2 3335-3637): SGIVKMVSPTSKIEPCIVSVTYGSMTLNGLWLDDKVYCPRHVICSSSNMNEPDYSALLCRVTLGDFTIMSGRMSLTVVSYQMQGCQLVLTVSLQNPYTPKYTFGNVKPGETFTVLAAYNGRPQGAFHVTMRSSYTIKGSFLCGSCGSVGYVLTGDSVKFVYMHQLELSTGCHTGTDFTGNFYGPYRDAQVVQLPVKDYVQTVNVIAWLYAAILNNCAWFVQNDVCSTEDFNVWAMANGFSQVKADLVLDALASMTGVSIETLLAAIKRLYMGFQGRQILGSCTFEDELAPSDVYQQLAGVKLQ
Chain of Mpro of NL63 (P0C6X5 2940-3242): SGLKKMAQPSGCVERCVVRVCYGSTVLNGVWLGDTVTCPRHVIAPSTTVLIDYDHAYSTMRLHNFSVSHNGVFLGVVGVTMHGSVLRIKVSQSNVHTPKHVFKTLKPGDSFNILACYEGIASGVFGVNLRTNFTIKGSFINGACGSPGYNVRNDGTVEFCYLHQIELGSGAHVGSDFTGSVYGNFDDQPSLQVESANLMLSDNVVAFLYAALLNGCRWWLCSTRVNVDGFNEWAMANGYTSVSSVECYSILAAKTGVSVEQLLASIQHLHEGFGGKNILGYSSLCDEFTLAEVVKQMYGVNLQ
Chain of Mpro of OC43 (P0C6X6 3247-3549): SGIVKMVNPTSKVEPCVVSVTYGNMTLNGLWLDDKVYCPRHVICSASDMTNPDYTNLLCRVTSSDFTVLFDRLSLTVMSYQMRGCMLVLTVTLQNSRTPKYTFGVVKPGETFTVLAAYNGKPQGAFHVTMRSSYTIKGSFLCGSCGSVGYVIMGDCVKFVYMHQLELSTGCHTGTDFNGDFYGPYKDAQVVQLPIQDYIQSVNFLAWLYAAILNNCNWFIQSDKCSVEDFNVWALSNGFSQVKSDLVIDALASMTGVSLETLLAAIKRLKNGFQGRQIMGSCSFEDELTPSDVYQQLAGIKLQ

Row | Compound | half-life [1] [h] | IC50 (Mpro of HKU1) [nM] | IC50 (Mpro of NL63) [nM] | IC50 (Mpro of OC43) [nM] | IC50 (Mpro of SARS-CoV-1) [nM] | IC50 (Mpro of 229E) [nM] | IC50 (Mpro of MERS) [nM]
1 | Cn1cnc(Cn2c(=O)[nH]/c(=N\c3cc4cn(C)nc4cc3Cl)n(Cc3cc(F)c(F)cc3F)c2=O)n1 [Ensitrelvir, ensitrelvir] | 2.4 |  |  |  |  |  | 
2 | CC(C)CC(NC(=O)OCc1ccccc1)C(=O)NC(CC1CCNC1=O)C(O)S(=O)(=O)O (centres unmarked) [GC376] |  | 73.3 | 438 |  |  |  | 
3 | O=C(NC1CCCC1)C(=O)[C@H](C[C@@H]1CCNC1=O)NC(=O)[C@@H]1[C@H]2CCC[C@H]2CN1C(=O)[C@@H](NC(=O)C(F)(F)F)C1CCCCC1 [Leritrelvir, leritrelvir] | 4.8 | 52.3 | 272 | 53.2 | 73 | 101 | 945
4 | CC(C)(C)[C@H](NC(=O)C(F)(F)F)C(=O)N1C[C@H]2[C@@H]([C@H]1C(=O)N[C@H](C#N)C[C@@H]1CCNC1=O)C2(C)C [Nirmatrelvir, nirmatrelvir] | 0.5 |  |  |  |  |  | 
